This is an account of results in US6822064B1, “Polymerizable macromers and preparation thereof” (Council of Scientific and Industrial Research, priority 2003, dated 2004).

The structures appear in SMILES notation.

This experiment deals with lysozyme (Gallus gallus, UniProt P00698). Briefly: Estimation of relative inhibition of lysozyme (Micrococcus lysodeikticus substrate, absorbance at 450 nm). The experiment is classed as biochemical. Particulars: for ligand concentration at maximum inhibition: ligand concentration at which the maximum inhibition is achieved; for Imax: maximum relative inhibition of lysozyme. An excerpt:
This example describes the estimation of inhibition of lysozyme by monomers, oligomers and macromer. I50 denotes the concentration of the ligand containing NAG at which 50% of the highest achievable inhibition is achieved. Imax denotes the ligand concentration at which the maximum inhibition is achieved.
Micrococcus lysodeikticus is a substrate for the enzyme lysozyme. Relative binding of macromers was estimated by using a procedure reported by Neuberger and Wilson (1967).
1.5% w/v stock solutions of macromer was prepared in 0.0066 M phosphate buffer pH 6.2 containing 0.0154 m sodium chloride and 0.008 M sodium azide. One milliliter of stock solution containing different ligand concentration was mixed with 1.6 ml of 78 μg/ml of Micrococcus lysodeikticus in a 3-ml capacity glass cuvette. The mixture was incubated for 5 minutes at 20° C. To this mixture 0.1 ml of lysozyme (27 μg/ml) was added and mixed thoroughly. The relative absorbance at 450 nm (Δ450) was recorded for 30 seconds. A blank reading without the ligand was noted and the change in the absorbance per second was calculated. Then relative inhibition was calculated.

Chain of lysozyme (P00698 19-147): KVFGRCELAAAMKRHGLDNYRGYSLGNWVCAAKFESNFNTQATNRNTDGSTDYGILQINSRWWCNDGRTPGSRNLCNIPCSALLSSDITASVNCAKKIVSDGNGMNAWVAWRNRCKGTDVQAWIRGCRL

Take `C=CC(=O)OC[C@H]1OC(O)[C@H](NC(C)=O)[C@@H](O)[C@@H]1O` (some centres unmarked) [Ac. NAG, Acryloyl N-Acetyl Glucosamine]: the “ligand concentration at maximum inhibition” value is on record as 14.81 mM and the Imax was 50.00. Moreover, the IC50 (ligand concentration at which 50% of the highest achievable inhibition is achieved, pH 6.2, 20° C., read-out: I50) is 14.8 mM.

`CC(=O)N[C@H]1C(O)O[C@H](CO)[C@@H](O)[C@@H]1O` (some centres unmarked) [NAG, N-Acetyl Glucosamine, reference compound]: the “ligand concentration at maximum inhibition” value is 92.50 mM and the Imax is 55.29.
